Patent publication US20240327364A1, “THERAPEUTIC TARGETING OF GPR68 TO INDUCE FERROPTOSIS” (University Of Maryland, Baltimore, priority 2023, published 2024)

Tests used:
BxPC-3 = assay: Cell Titer-Glo viability, Pancreatic adenocarcinoma; assay type: cell-based
Description: (§1) OGM2 kills wide variety of cancer cell types. Cell sensitivity can be classified in to Very Sensitive (LC50<2 μM), Sensitive (LC50=2 to 10 μM), Mildly Sensitive (LC50>10 μM), and Refractory (no killing at 10 μM). The listed established cell were incubated with OGM2 at 2 μM or 10 μM for 72 hours under standard cell culture conditions, and relative cell number was assessed using Cell Titer-Glo Luminescent Cell Viability Assay (Promega™) following the manufacturer's instructions. Luminescence was determined using a Cytation 5 reader and Gen5 software package (BioTek™).
(§2) Cancer cells, which are very sensitive to killing by OGM2 (LCs <2 μM), with reported mRNA expression of GPR68 and the related proton sensing receptor GPR4. LC50's (concentrations causing 50% lethality) were determined using CellTiter-Glo (Promega™, G7570). Cells were plated in 12-well plates (CELLTREAT Scientific Products, 229112) in 1 ml of DMEM with high glucose, GlutaMAX, HEPES, or RPMI 1640 with Penicillin-Streptomycin (ThermoFisher™, 10564029, 11875119 and 15140122) and 10% FBS. Cells were incubated overnight at 37° C. in 5% CO2. Then 1 mL of fresh media was added with DMSO, OGM, or positive control (Erastin; APExBIO Technology, LLC, B1524) and cells incubated for 3 days. On the third day, all media was removed, cells were rinsed with 1×PBS, PBS was removed, and 200 μL of 1× Passive Lysis Buffer (Promega™, E1941) was added to each well. […]. Subsequently, 20 μL of lysate was added to 100 μL CellTiter-Glo™ reagent on a LUMITRAC 200 plate (Greiner™ bio-one, 82050-726). Plates were briefly spun down and read on a GloMax-Multi Detection System (Promega™).
(§3) The cells listed in the tables above were incubated with OGM2 at 2 μM or 10 μM for 72 hours under standard cell culture conditions, and relative cell number was assessed using Cell Titer-Glo Luminescent Cell Viability Assay (Promega™) following the manufacturer's instructions. Luminescence was determined using a Cytation 5 reader and Gen5 software package (BioTek™). RNA expression of GPR68 and GPR4 in the corresponding cancer cell lines are listed, according to the publicly available The Human Protein Atlas version 22.0 and Ensembl version 103.38 (see proteinatlas.org). The consensus normalized expression value (“nTPM”=normalize transcript per million) was calculated as the maximum nTPM value for each gene in the two data sources.

Panc02 = assay: as above; assay type: cell-based
Description: as §1, §2, §3

U87 = assay: GSH-Glo Glutathione Assay; assay type: cell-based, human; settings: 2 μM OGM2 for 24 hours
Description: GSH-Glo™ Glutathione Assay (Promega™) was performed according to manufacturer protocol. Briefly, U87 cells were plated at 10,000 cells per well in a 96-well plate. The following day cells were treated with DMSO control vehicle or 2 μM OGM2 for 24 hours. Medium was removed from wells and 100 μl GSH-Glo™ Reagent was added to each well and incubated on a plate shaker for 30 minutes. One hundred microliters Luciferin Detection Reagent was added to each well and mixed briefly. After 15 minutes incubation, luminescence was detected on Promega™ GloMax luminometer.

A2058 = assay: Scratch assay; assay type: cell-based, human; settings: 20 hours, OGM2 5 uM
MAP3K2 = target: T1, MAP3K2 (Homo sapiens, UniProt Q9Y2U5); assay: KinomeScan; assay type: binding; settings: read-out: % Control
T1 construct: purchased DiscoveRx (Fremont, CA)
T1 sequence (Q9Y2U5 whole entry): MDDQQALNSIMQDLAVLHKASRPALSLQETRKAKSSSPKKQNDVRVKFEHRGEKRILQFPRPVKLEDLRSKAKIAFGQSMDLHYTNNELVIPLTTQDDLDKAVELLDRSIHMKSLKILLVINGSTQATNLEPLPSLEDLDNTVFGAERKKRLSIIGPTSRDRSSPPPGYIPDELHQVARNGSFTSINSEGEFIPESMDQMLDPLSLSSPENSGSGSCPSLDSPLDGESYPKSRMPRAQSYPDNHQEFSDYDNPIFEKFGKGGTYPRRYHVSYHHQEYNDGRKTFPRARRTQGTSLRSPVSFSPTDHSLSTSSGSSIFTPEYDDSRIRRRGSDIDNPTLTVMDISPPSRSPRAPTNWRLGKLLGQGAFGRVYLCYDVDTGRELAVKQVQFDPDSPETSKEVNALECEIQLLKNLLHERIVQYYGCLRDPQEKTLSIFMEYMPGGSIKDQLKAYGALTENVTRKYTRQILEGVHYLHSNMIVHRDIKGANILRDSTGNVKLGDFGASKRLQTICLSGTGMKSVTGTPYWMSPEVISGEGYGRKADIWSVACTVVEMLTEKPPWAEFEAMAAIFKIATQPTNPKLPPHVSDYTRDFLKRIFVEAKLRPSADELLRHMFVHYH

BMPR1B = target: T2, BMPR1B (Homo sapiens, UniProt O00238); assay: KinomeScan; assay type: binding; settings: read-out: % Control
T2 construct: purchased DiscoveRx (Fremont, CA)

ERN1 = target: T3, ERN1 (Homo sapiens, UniProt O75460); assay: KinomeScan; assay type: binding; settings: read-out: % Control
T3 construct: purchased DiscoveRx (Fremont, CA)
T3 sequence (O75460 19-977): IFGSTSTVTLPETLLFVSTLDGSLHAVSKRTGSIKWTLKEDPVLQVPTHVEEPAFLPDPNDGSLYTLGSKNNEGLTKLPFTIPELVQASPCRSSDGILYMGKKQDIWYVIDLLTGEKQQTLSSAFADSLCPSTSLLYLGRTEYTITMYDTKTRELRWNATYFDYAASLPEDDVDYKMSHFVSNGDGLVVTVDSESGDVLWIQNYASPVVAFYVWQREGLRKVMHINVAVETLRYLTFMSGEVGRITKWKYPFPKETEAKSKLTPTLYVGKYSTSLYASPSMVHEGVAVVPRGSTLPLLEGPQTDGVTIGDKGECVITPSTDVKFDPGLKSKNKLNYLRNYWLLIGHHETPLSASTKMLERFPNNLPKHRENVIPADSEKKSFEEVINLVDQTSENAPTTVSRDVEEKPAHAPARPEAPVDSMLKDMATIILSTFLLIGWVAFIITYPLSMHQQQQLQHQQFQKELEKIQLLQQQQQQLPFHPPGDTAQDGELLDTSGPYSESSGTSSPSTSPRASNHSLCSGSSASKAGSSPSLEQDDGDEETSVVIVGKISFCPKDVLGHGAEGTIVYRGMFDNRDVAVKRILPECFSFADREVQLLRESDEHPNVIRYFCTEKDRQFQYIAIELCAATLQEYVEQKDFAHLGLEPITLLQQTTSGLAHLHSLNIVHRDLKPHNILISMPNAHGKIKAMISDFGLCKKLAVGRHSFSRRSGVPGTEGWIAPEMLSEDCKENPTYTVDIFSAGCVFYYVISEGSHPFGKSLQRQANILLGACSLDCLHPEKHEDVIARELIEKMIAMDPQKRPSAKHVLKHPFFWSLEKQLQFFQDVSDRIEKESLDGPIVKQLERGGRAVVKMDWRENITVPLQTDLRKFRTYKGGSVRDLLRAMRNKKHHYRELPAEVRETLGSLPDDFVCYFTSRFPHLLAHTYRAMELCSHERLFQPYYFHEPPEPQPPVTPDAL

PRKD3 = target: T4, PRKD3 (Homo sapiens, UniProt O94806); assay: KinomeScan; assay type: binding; settings: read-out: % Control
T4 construct: purchased DiscoveRx (Fremont, CA)

DDR2 = target: T5, DDR2 (Homo sapiens, UniProt Q16832); assay: KinomeScan; assay type: binding; settings: read-out: % Control
T5 construct: purchased DiscoveRx (Fremont, CA), KinomeScan service

IRAK4 = target: T6, IRAK4 (Homo sapiens, UniProt Q9NWZ3); assay: KinomeScan; assay type: binding; settings: read-out: % Control
T6 construct: purchased DiscoveRx (Fremont, CA)

Lpa1 = Lpa1 (Homo sapiens, UniProt Q92633); assay: GPCR Profiler; assay type: cell-based
Lpa1, sequence (Q92633 whole entry, species assumed): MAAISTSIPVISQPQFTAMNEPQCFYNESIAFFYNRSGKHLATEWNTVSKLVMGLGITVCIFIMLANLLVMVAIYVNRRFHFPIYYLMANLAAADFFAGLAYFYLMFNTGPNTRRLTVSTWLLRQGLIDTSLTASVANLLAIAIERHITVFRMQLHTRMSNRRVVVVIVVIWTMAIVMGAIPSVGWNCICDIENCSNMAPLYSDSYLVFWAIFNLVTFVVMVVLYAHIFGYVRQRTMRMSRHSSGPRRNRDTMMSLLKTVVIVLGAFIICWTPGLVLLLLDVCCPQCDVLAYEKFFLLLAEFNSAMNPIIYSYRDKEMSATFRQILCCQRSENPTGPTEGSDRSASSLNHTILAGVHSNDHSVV

H3 = target: T7, H3 (Homo sapiens, UniProt Q9Y5N1); assay: GPCR Profiler; assay type: cell-based
T7 construct: host or cells: Chem-1 cells with promiscuous Gα15
T7 sequence (Q9Y5N1 whole entry): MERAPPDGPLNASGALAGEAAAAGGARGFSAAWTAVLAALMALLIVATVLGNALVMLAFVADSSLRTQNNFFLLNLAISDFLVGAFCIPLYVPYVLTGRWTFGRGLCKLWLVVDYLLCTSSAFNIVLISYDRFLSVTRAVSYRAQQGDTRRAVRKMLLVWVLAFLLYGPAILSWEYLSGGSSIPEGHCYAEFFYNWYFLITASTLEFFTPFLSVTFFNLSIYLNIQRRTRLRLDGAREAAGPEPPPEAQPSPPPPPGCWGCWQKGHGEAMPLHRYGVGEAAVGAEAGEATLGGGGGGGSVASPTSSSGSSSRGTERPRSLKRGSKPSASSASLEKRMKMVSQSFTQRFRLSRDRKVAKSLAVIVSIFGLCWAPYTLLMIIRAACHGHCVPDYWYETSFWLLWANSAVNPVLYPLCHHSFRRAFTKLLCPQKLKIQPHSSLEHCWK

QSK = target: T8, QSK (Homo sapiens, UniProt Q9Y2K2); assay: KinomeScan; assay type: binding; settings: read-out: % Control
T8 construct: purchased DiscoveRx (Fremont, CA)

CCR2B = target: T9, CCR2B (Homo sapiens, UniProt P41597); assay: GPCR Profiler; assay type: cell-based
T9 construct: host or cells: Chem-1 cells with Gα15
T9 sequence (P41597 1-360 isoform P41597-2): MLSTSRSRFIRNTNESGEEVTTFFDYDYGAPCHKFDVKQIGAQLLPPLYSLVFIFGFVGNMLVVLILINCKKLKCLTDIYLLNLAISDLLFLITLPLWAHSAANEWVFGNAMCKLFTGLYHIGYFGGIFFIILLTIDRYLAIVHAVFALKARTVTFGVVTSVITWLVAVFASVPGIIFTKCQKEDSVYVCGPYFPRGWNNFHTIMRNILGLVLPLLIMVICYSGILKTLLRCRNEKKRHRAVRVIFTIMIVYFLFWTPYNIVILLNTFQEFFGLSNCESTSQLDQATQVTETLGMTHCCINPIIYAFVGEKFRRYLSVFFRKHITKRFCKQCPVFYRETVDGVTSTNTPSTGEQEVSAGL

PIK3C2G = target: T10, PIK3C2G (Homo sapiens, UniProt O75747); assay: KinomeScan; assay type: binding; settings: read-out: % Control
T10 construct: purchased DiscoveRx (Fremont, CA)

PAK4 = target: T11, PAK4 (Homo sapiens, UniProt O96013); assay: KinomeScan; assay type: binding; settings: read-out: % Control
T11 construct: purchased DiscoveRx

YANK1 = target: T12, YANK1 (Homo sapiens, UniProt Q8WU08); assay: KinomeScan; assay type: binding; settings: read-out: % Control
T12 construct: purchased DiscoveRx
T12 sequence (Q8WU08 whole entry): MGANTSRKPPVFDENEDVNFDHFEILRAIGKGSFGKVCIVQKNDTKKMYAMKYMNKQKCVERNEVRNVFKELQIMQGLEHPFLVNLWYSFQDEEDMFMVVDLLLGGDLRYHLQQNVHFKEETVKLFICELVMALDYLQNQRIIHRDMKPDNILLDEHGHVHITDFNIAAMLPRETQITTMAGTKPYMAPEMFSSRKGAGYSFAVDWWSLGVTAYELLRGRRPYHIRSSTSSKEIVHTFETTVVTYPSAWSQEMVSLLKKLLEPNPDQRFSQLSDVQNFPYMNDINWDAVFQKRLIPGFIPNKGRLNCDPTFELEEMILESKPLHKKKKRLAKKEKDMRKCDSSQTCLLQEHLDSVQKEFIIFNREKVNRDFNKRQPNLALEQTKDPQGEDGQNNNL

ERBB2 = target: T13, ERBB2 (Homo sapiens, UniProt P04626); assay: KinomeScan; assay type: binding; settings: read-out: % Control
T13 construct: purchased DiscoveRx (Fremont, CA)
T13 sequence (P04626 23-1255): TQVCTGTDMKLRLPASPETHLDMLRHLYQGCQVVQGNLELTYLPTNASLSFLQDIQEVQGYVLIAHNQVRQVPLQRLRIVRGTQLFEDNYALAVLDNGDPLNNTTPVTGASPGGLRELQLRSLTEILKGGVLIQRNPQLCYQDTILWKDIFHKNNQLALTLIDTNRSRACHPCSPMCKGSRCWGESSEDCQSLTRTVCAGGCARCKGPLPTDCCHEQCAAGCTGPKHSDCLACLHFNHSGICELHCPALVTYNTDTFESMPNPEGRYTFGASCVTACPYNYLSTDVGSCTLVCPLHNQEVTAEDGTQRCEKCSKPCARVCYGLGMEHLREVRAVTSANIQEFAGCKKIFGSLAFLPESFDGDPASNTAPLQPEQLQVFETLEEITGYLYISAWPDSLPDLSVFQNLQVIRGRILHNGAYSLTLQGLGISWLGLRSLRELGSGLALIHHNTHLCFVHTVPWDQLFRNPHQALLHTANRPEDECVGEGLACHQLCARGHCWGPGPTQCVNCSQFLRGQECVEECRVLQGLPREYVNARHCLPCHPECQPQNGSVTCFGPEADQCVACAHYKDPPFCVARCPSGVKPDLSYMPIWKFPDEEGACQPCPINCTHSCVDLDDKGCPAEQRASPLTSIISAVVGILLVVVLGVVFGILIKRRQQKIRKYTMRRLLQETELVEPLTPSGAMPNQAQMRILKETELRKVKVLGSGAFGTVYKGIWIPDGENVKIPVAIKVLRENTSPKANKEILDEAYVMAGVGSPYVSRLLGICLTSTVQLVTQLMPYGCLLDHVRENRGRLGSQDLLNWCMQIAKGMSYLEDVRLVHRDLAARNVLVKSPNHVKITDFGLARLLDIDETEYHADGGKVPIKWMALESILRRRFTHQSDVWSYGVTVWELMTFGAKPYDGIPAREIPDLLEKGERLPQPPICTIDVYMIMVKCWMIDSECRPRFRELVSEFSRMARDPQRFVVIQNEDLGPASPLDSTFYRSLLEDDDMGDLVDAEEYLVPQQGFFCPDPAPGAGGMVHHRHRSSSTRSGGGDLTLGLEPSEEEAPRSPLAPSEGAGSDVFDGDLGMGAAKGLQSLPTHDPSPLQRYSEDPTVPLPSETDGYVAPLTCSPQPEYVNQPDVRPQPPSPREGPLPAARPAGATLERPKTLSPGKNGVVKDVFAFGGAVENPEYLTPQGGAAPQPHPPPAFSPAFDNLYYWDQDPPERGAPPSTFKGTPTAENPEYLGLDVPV

CCR7 = target: T14, CCR7 (Homo sapiens, UniProt P32248); assay: GPCR Profiler; assay type: cell-based
T14 construct: host or cells: Chem-1 cells with Gα15
T14 sequence (P32248 25-378, species assumed): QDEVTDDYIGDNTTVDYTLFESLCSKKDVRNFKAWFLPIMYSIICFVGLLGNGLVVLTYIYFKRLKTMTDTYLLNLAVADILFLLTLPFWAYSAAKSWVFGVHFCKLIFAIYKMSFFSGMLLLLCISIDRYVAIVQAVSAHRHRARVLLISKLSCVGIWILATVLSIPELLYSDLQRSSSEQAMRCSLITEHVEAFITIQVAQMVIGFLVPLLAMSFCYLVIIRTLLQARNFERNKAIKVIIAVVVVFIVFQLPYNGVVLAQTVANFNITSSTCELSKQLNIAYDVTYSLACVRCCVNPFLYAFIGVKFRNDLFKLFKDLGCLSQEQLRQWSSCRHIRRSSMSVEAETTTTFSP

RIOK3 = target: T15, RIOK3 (Homo sapiens, UniProt O14730); assay: KinomeScan; assay type: binding; settings: read-out: % Control
T15 construct: purchased DiscoveRx (Fremont, CA)

MARK2 = target: T16, MARK2 (Homo sapiens, UniProt Q7KZI7); assay: KinomeScan; assay type: binding; settings: read-out: % Control
T16 construct: purchased DiscoveRx (Fremont, CA)

CCc1ccc2c(c1)C1(NN=C(c3ccccc3)S1)C(=O)N2 (stereo not shown) [OGM2]
Class (BxPC-3): Mildly
% Survival 2 μM OGM (BxPC-3; 72 hours): 81.5%
% Survival 10 μM OGM (BxPC-3; 72 hours): 83.8%
CC50 (BxPC-3; Homo sapiens, BXPC-3, 72 hours, read-out: LC50 (the source's name)): > 10 µM
Class (Panc02): Sensitive (Sensitive (LC50=2 to 10 μM))
% Survival 2 μM OGM (Panc02; 72 hours): 72.5%
% Survival 10 μM OGM (Panc02; 72 hours): 40.5%
CC50 (Panc02; Mus musculus, Panc02, 72 hours, read-out: LC50 (the source's name)): 2 to 10 µM
glutathione levels (U87): dramatically reduced glutathione levels
migration (A2058): inhibited migration

CCc1ccc2c(c1)C1(NN=C(c3cccc4ccccc34)S1)C(=O)N2 (stereo not shown) [OGM1, 5-ethyl-5′-naphthalen-1-ylspiro[1H-indole-3,2′-3H-1,3,4-thiadiazole]-2-one]
remaining binding at 10 µM (MAP3K2): 92%
remaining binding at 10 µM (BMPR1B): 81%
remaining binding at 10 µM (ERN1): 72%
remaining binding at 10 µM (PRKD3): 100%
remaining binding at 10 µM (DDR2): 86%
remaining binding at 10 µM (IRAK4): 88%
Antagonism (Lpa1; 10 uM): 89.5
Agonism (Lpa1; 12.5 uM): 0.5
Antagonism (H3; 10 uM): −3.3
Agonism (H3; 12.5 uM): 0.5
remaining binding at 10 µM (QSK): 100%
Antagonism (CCR2B; 10 uM): 0.7
Agonism (CCR2B; 12.5 uM): 0.7
remaining binding at 10 µM (PIK3C2G): 50%
remaining binding at 10 µM (PAK4): 66%
remaining binding at 10 µM (YANK1): 100%
remaining binding at 10 µM (ERBB2): 65%
Antagonism (CCR7; 10 uM): 4
Agonism (CCR7; 12.5 uM): 0
remaining binding at 10 µM (RIOK3): 100%
remaining binding at 10 µM (MARK2): 100%
